According to patent US8030282B2, “Motilide polymorphs” (priority 2006, dated 2011):
≈ marks a conversion by molar mass, not a printed value.

Assays:
[1] = Storage stability at 40° C. and 75% RH (XRPD); type: physicochemical; conditions: for change on storage at 40° C. and 75% RH: one week
[2] = Aqueous solubility of polymorphs of Compound Ia; type: physicochemical
[3] = Form stability under aqueous conditions / during solubility analysis; type: physicochemical
[4] = Gravimetric vapor sorption (GVS) moisture sorption isotherm; type: physicochemical; conditions: for mass gain/loss upon multiple sorption and desorption cycles / weight increase / mass uptake between 0 and 90% RH: GVS, 25° C.; for weight increase / mass uptake between 0 and 90% RH: 0 to 90% RH; for XRPD re-analysis under ambient conditions after GVS: after GVS weight uptake/loss
Method: GVS data was also collected by Pharmorphix, Ltd. All samples were run on a Hiden IGASorp moisture sorption analyzer running CFRSorp software. Sample sizes were typically 10 mg. A moisture adsorption-desorption isotherm was performed as outlined below, with two scans giving one complete cycle. All samples were loaded and unloaded at typical ambient (room) humidity and temperature (40% RH, 25° C.). All samples were analyzed by XRPD after GVS analysis. The standard isotherm was performed at 25° C. at 10% RH intervals over a 0 to 90% RH range. [table]

motilin receptor = motilin receptor (Homo sapiens, UniProt O43193); conditions: cited from earlier work
Sequence of motilin receptor (O43193 whole entry, species assumed): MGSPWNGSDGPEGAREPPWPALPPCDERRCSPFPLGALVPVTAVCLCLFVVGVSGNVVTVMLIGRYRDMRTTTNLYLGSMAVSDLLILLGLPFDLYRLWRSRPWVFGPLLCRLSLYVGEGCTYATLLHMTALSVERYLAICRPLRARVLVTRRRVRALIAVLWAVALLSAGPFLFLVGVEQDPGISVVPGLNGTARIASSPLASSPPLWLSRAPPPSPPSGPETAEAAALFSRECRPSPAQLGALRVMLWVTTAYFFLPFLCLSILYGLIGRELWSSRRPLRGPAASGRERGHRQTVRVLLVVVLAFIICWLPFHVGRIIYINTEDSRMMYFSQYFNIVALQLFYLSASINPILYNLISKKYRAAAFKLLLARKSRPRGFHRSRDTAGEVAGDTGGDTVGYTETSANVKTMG

[5] = Retention of crystallinity on heating or vacuum drying (XRPD); type: physicochemical
Excerpt: XRPD patterns were collected on a Bruker AXS C2 GADDS diffractometer using Cu Kα radiation (40 kV, 40 mA), automated XYZ stage, laser video microscope for auto-sample positioning and a HiStar 2-dimensional area detector. X-ray optics consisted of a single Göbel multilayer mirror coupled with a pinhole collimator of 0.3 mm.
The beam divergence, i.e. the effective size of the X-ray beam on the sample, was approximately 4 mm. A θ-θ continuous scan mode was employed with a sample-detector distance of 20 cm which gave an effective 2θ range of 3.2° to 29.7°. Typically the sample would be exposed to the X-ray beam for 120 seconds.

| SMILES | polymorph change under aqueous conditions / during solubility analysis [3] | mass gain/loss upon multiple sorption and desorption cycles [4] | weight increase / mass uptake between 0 and 90% RH [4] [%] | XRPD re-analysis under ambient conditions after GVS [4] | other results |
| --- | --- | --- | --- | --- | --- |
| CC[C@H]1OC(=O)[C@H](C)[C@@H](O[C@H]2C[C@@](C)(OC)[C@@H](O)[C@H](C)O2)[C@H](C)[C@@H](O[C@@H]2O[C@H](C)C[C@H](N(C)C(C)C)[C@H]2O)[C@](C)(O)C[C@@H](C)[C@H](OCC(=O)NC)[C@H](C)[C@@H](O)[C@]1(C)O [Polymorph V] | converted to Polymorph II | – | – | – | change on storage at 40° C. and 75% RH [1]: decreased in crystallinity; aqueous solubility [2]: 720 µg/mL (≈ 862 µM) |
| CC[C@H]1OC(=O)[C@H](C)[C@@H](O[C@H]2C[C@@](C)(OC)[C@@H](O)[C@H](C)O2)[C@H](C)[C@@H](O[C@@H]2O[C@H](C)C[C@H](N(C)C(C)C)[C@H]2O)[C@](C)(O)C[C@@H](C)[C@H](OCC(=O)NC)[C@H](C)[C@@H](O)[C@]1(C)O [Polymorph VI] | – | changed drastically | – | – | change on storage at 40° C. at 75% RH ([1]; duration not stated): converted to Polymorph IV |
| CC[C@H]1OC(=O)[C@H](C)[C@@H](O[C@H]2C[C@@](C)(OC)[C@@H](O)[C@H](C)O2)[C@H](C)[C@@H](O[C@@H]2O[C@H](C)C[C@H](N(C)C)[C@H]2O)[C@](C)(O)C[C@@H](C)C(=O)[C@H](C)[C@@H](O)[C@]1(C)O [erythromycin A (1), Erythromycin A] | – | – | – | – | motilin agonist activity (motilin receptor): motilin agonist activity |
| CC[C@H]1OC(=O)[C@H](C)[C@@H](O[C@H]2C[C@@](C)(OC)[C@@H](O)[C@H](C)O2)[C@H](C)[C@@H](O[C@@H]2O[C@H](C)C[C@H](N(C)C(C)C)[C@H]2O)[C@](C)(O)C[C@@H](C)[C@H](OCC(=O)NC)[C@H](C)[C@@H](O)[C@]1(C)O [Polymorph VII] | converted to a mixture of Polymorphs II and IV | changed drastically | 3 | loss of crystallinity | change on storage at 40° C. and 75% RH [1]: lost crystallinity; aqueous solubility [2]: 750 µg/mL (≈ 898 µM); weight change by GVS analysis [4]: constant weight loss |
| CC[C@H]1OC(=O)[C@H](C)[C@@H](O[C@H]2C[C@@](C)(OC)[C@@H](O)[C@H](C)O2)[C@H](C)[C@@H](O[C@@H]2O[C@H](C)C[C@H](N(C)C(C)C)[C@H]2O)[C@](C)(O)C[C@@H](C)[C@H](OCC(=O)NC)[C@H](C)[C@@H](O)[C@]1(C)O [Polymorph IV] | Neither storage at 40 °C at 75% R^H for 10 weeks nor handling during solubility analysis produced any significant changes | very uniform | 3.5 | did not lead to a change in XRPD pattern | change on storage at 40° C. at 75% RH ([1]; 10 weeks): Neither storage at 40 °C at 75% R^H for 10 weeks nor handling during solubility analysis produced any significant changes; solubility ([2]; water): 770 µg/mL (≈ 922 µM); XRPD pattern on heating ([5]; heating up to the melt): no change in XRPD pattern |
| CC[C@H]1OC(=O)[C@H](C)[C@@H](O[C@H]2C[C@@](C)(OC)[C@@H](O)[C@H](C)O2)[C@H](C)[C@@H](O[C@@H]2O[C@H](C)C[C@H](N(C)C(C)C)[C@H]2O)[C@](C)(O)C[C@@H](C)[C@H](OCC(=O)NC)[C@H](C)[C@@H](O)[C@]1(C)O [Polymorph II] | – | changed drastically | – | loss of crystallinity | crystallinity during vacuum drying ([5]; vacuum drying at 30° C. for 72 h): loses crystallinity; weight loss when kept at between 5 and 0% RH ([4]; between 5 and 0% RH): 4% |
| CC[C@H]1OC(=O)[C@H](C)[C@@H](O[C@H]2C[C@@](C)(OC)[C@@H](O)[C@H](C)O2)[C@H](C)[C@@H](O[C@@H]2O[C@H](C)C[C@H](N(C)C(C)C)[C@H]2O)[C@](C)(O)C[C@@H](C)[C@H](OCC(=O)NC)[C@H](C)[C@@H](O)[C@]1(C)O [Polymorph I] | converted to a second polymorph, referred to as Polymorph II | changed drastically | 8.5 | – | – |
